Publication PMC9037358 (RSC Advances, 2021)

How the values were obtained:
MDA-MB-231 [1] = assay: MTT cytotoxicity assay; type: cell-based; conditions: Homo sapiens, MDA-MB-231, 48 h, read-out: Cytotoxicity IC50 μM ± S.D. MDA-MB-231
K. pneumonia = assay: Anti-biofilm activity; type: cell-based; conditions: 50 μg mL^−1
Salmonella typhimurium = assay: Antimicrobial activity; type: cell-based; conditions: 50 μg mL^−1; NA: not active
Proteus vulgaris = assay: Antimicrobial activity; type: cell-based; conditions: 24 h, read-out: inhibition ratio% P. vulgaris
S. aureus = assay: Anti-biofilm activity; type: cell-based; conditions: 50 μg mL^−1
S. typhimurium = assay: Anti-biofilm activity; type: cell-based; conditions: 50 μg mL^−1
[2] = MTT cytotoxicity assay, normal breast cell line; type: cell-based, human; conditions: human, MCF 10A normal breast cells
MCF-7 = assay: MTT cytotoxicity assay; type: cell-based; conditions: Homo sapiens, MCF7, 48 h, read-out: Cytotoxicity IC50 μM ± S.D. MCF-7
E. coli [3] = assay: Anti-biofilm activity; type: cell-based; conditions: 50 μg mL^−1
Klebsiella pneumonia = assay: Antimicrobial activity; type: cell-based; conditions: 50 μg mL^−1; NA: not active
[4] = system: Escherichia coli ATCC 25955; assay: Antimicrobial activity; type: cell-based; conditions: 50 μg mL^−1; NA: not active
[5] = system: Staphylococcus aureus NRRL B-767; assay: Antimicrobial activity; type: cell-based; conditions: 50 μg mL^−1, NA: not active
P. vulgaris = assay: Anti-biofilm activity; type: cell-based; conditions: 50 μg mL^−1
MDA-MB-231 [6] = assay: Cellular uptake assay; type: cell-based, human; conditions: HPLC
carbonic anhydrase II = carbonic anhydrase II (Homo sapiens, UniProt P00918); assay: In vitro carbonic anhydrase II enzyme inhibition; type: biochemical
MCF 10A = assay: MTT cytotoxicity assay, normal breast cell line; type: cell-based, human; conditions: both breast cancer cell lines vs MCF-10A
MDA-MB-231 [7] = assay: Annexin V-FITC apoptosis assay; type: cell-based, human
MDA-MB-231 [8] = assay: Cell cycle analysis; type: cell-based, human; conditions: compared to positive control
carbonic anhydrase IX = carbonic anhydrase IX (Homo sapiens, UniProt Q16790); assay: In vitro carbonic anhydrase IX enzyme inhibition; type: biochemical
P. aeruginosa = assay: Anti-biofilm activity; type: cell-based; conditions: 50 μg mL^−1
[9] = system: Candida albicans ATCC 10231; assay: Antimicrobial activity; type: cell-based; conditions: 50 μg mL^−1; NA: not active
CA IX = conditions: read-out: CA IX IC50; as reported; cited from earlier work
E. coli [10] = conditions: cited from earlier work
S. flexenari = conditions: cited from earlier work

Row | Compound | IC50 (MDA-MB-231 [1]) [µM] | Biofilm inhibition ratio% K. pneumonia (K. pneumonia) [%] | inhibition ratio% S. typhimurium (Salmonella typhimurium) [%] | inhibition of growth at 50 µg/mL (Proteus vulgaris) [%] | Biofilm inhibition ratio% S. aureus (S. aureus) [%] | IC50 at 48 h [2] [µM] | IC50 (MCF-7) [µM] | Biofilm inhibition ratio% E. coli (E. coli [3]) [%] | inhibition ratio% S. aureus [5] [%] | Biofilm inhibition ratio% P. vulgaris (P. vulgaris) [%] | further results
1 | NS(=O)(=O)c1ccc(NC2=NC(=O)/C(=C\c3ccc(C(=O)O)cc3)S2)cc1 [Compound 4f, (E)-4-((4-oxo-2-(4-Sulfamoylphenylamino)thiazol-5(4H)-ylidene)methyl)benzoic acid] | 17.2 ± 0.7 | 10.08 | 45.72 | 3.39 | 21.43 | 30.3 ± 1.1 | 36 ± 1.4 | 19.89 | 57.93 | 64.67 | Biofilm inhibition ratio% S. typhimurium (S. typhimurium): 36.57%; inhibition ratio% K. pneumonia (Klebsiella pneumonia): 26.80%; inhibition ratio% E. coli [4]: 46.45%
2 | C=CCc1cc(/C=C2/SC(Nc3ccc(S(N)(=O)=O)cc3)=NC2=O)c(O)c(OC)c1 [Compound 4e, (E)-4-(5-(5-Allyl-2-hydroxy-3-methoxybenzylidene)-4-oxo-4,5-dihydrothiazol-2-ylamino)benzenesulfonamide] | 3.58 ± 0.1 | 18.60 | 75.09 | 42 | 45.92 | 19.4 ± 0.7 | 4.58 ± 1.8 | 15.47 | 80.69 | 61.41 | level of compound taken up into MDA-MB-231 cell line (MDA-MB-231 [6]): 12.5 µg/mL; IC50 (carbonic anhydrase II): 3920 nM; Biofilm inhibition ratio% S. typhimurium (S. typhimurium): 63.43%; selectivity to breast cancer cell lines over MCF-10A (MCF 10A): 5.5 times; necrosis phase (MDA-MB-231 [7]; upper left quadrant): 16.65%; annexin V-FITC-positive cells, late apoptotic phase (MDA-MB-231 [7]; upper right quadrant): 22.04%; arrest in the S phase (MDA-MB-231 [8]): 1.4 fold; increase in the percentage of cells at pre-G1 (MDA-MB-231 [8]): 22 fold; inhibition ratio% K. pneumonia (Klebsiella pneumonia): 62.89%; IC50 (carbonic anhydrase IX; CA IX IC50 (nM)±S.D.): 10.9 nM; IC50 (carbonic anhydrase IX; CA IX IC50 (μM)): 11 nM; inhibition ratio% E. coli [4]: 60.66%
3 | O=C(O)c1cn(C2CC2)c2cc(N3CCNCC3)c(F)cc2c1=O [Cip, ciprofloxacin, reference compound] | – | – | 99.56 | 99.8 | – | – | – | – | 99.25 | – | inhibition ratio% K. pneumonia (Klebsiella pneumonia): 99.7%; inhibition ratio% E. coli [4]: 99.1%; inhibition ratio% S. aureus ([5]; listed as CIP): 99.2%
4 | COc1cc(/C=C2/SC(Nc3ccc(S(N)(=O)=O)cc3)=NC2=O)ccc1O [Compound 4h, (E)-4-(5-(4-Hydroxy-3-methoxybenzylidene)-4-oxo-4,5-dihydrothiazol-2-ylamino)benzenesulfonamide] | 1.56 ± 0.1 | 77.52 | 59.11 | 19.1 | 19.39 | 26.1 ± 1.1 | 1.52 ± 0.1 | 19.89 | 68.30 | 50.54 | level of compound taken up into MDA-MB-231 cell line (MDA-MB-231 [6]): 17.07 µg/mL; IC50 (carbonic anhydrase II): 2190 nM; Biofilm inhibition ratio% S. typhimurium (S. typhimurium): 66.86%; selectivity to breast cancer cell lines over MCF-10A (MCF 10A): 17.5 times; inhibition ratio% K. pneumonia (Klebsiella pneumonia): 33.51%; IC50 (carbonic anhydrase IX; CA IX IC50 (nM)±S.D.): 25.6 nM; IC50 (carbonic anhydrase IX; CA IX IC50 (μM)): 26 nM; inhibition ratio% E. coli [4]: 29.51%; Biofilm inhibition ratio% P. aeruginosa (P. aeruginosa): 35.96%
5 | C[C@@H]1[C@H](O)[C@@H](C)/C=C/C=C/CC/C=C/C=C/C=C/C=C/C(O[C@H]2O[C@H](C)[C@@H](O)[C@H](N)[C@@H]2O)CC2O[C@](O)(CC(O)C(O)CCC(O)CC(O)CC(O)CC(=O)O[C@H]1C)CC(O)C2C(=O)O (stereo partly shown) [Nys, nystatin, reference compound] | – | – | – | – | – | – | – | – | – | – | inhibition ratio% C. albicans [9]: 99.21%
6 | NS(=O)(=O)c1ccc(NC2=NC(=O)/C(=C\c3ccc([N+](=O)[O-])cc3)S2)cc1 [Compound 4g, (E)-4-(5-(4-Nitrobenzylidene)-4-oxo-4,5-dihydrothiazol-2-ylamino)benzenesulfonamide] | 5.54 ± 0.2 | 79.46 | 60.97 | 23.3 | 35.24 | 47.9 ± 1.7 | 2.55 ± 0.1 | – | 69.74 | – | IC50 (carbonic anhydrase II): 1550 nM; selectivity to breast cancer cell lines over MCF-10A (MCF 10A): 8.5 times; IC50 (carbonic anhydrase IX; CA IX IC50 (nM)±S.D.): 17 nM; IC50 (carbonic anhydrase IX; CA IX IC50 (μM)): 17 nM
7 | COc1cc(/C=C2/SC(Nc3ccc(S(N)(=O)=O)cc3)=NC2=O)cc(OC)c1OC [Compound 4i, (E)-4-(4-oxo-5-(3,4,5-Trimethoxybenzylidene)-4,5-dihydrothiazol-2-ylamino)benzenesulfonamide] | 16.3 ± 0.6 | 5.43 | – | – | 22.55 | 14.2 ± 0.5 | 4.05 ± 0.2 | 49.72 | – | 7.61 | Biofilm inhibition ratio% S. typhimurium (S. typhimurium): 22.86%
8 | CN(C)c1ccc(/C=C2/SC(Nc3ccc(S(N)(=O)=O)cc3)=NC2=O)cc1 [Compound 4j, (E)-4-(5-(4-(Dimethylamino)benzylidene)-4-oxo-4,5-dihydrothiazol-2-ylamino)benzenesulfonamide] | 10.1 ± 0.4 | – | – | 5.08 | – | 13.1 ± 0.5 | 26.6 ± 1 | – | – | – | –
9 | NS(=O)(=O)c1ccc(NC2=NC(=O)/C(=C\c3ccc(O)cc3)S2)cc1 [Compound 4b, (E)-4-(5-(4-Hydroxybenzylidene)-4-oxo-4,5-dihydrothiazol-2-ylamino)benzenesulfonamide] | 14.6 ± 0.6 | 78.29 | – | – | 53.06 | 17.8 ± 0.6 | 3.63 ± 0.1 | 18.78 | – | 16.85 | Biofilm inhibition ratio% P. aeruginosa (P. aeruginosa): 45.51%; inhibition ratio% C. albicans [9]: 8.87%
11 | NS(=O)(=O)c1ccc(NC2=NC(=O)/C(=C\c3ccc(Cl)cc3)S2)cc1 [Compound 4d, (E)-4-(5-(4-Chlorobenzylidene)-4-oxo-4,5-dihydrothiazol-2-ylamino)benzenesulfonamide] | 1.88 ± 0.1 | – | – | – | – | 22.9 ± 0.8 | 15.5 ± 0.6 | – | – | – | –
12 | C[C@@H](O)[C@H]1C(=O)N2C(C(=O)O)=C(SCCN=CN)C[C@H]12 [imipenem] | – | – | – | – | – | – | – | – | – | – | zone inhibition (ZI) E. coli (E. coli [10]): 30 mm; zone inhibition (ZI) S. flexenari (S. flexenari): 27 mm
13 | NS(=O)(=O)c1ccc(NC2=NC(=O)/C(=C\c3ccccc3)S2)cc1 [Compound 4a, (E)-4-(5-Benzylidene-4-oxo-4,5-dihydrothiazol-2-ylamino)benzenesulfonamide] | 12.8 ± 0.5 | – | – | – | – | 24.2 ± 0.9 | 9.63 ± 0.4 | – | – | – | –
14 | COc1ccc(/C=C2/SC(Nc3ccc(S(N)(=O)=O)cc3)=NC2=O)cc1 [Compound 4c, (E)-4-(5-(4-Methoxybenzylidene)-4-oxo-4,5-dihydrothiazol-2-ylamino)benzenesulfonamide] | 6.31 ± 0.2 | – | – | – | – | 22.7 ± 0.8 | 3.67 ± 0.1 | – | – | – | –
